Patent US5518735A, “Meta-substituted phenylalanine derivatives” (priority 1990, dated 1996)
Where a name gives a salt, the structure may show the parent alone.

Key:
[1] = target: thrombin (Bos taurus, UniProt P00735); experiment: Inhibition of thrombin (dissociation constant Ki); format: biochemical
[2] = target: factor Xa (Bos taurus, UniProt P00743); experiment: Inhibition of factor Xa (dissociation constant Ki); format: biochemical; settings: Tables 19-25; read-out: Ki, Factor Xa
[3] = target: T1, trypsin (Bos taurus, UniProt P00760); experiment: Inhibition of trypsin (Ki); format: biochemical; settings: Table 26
T1 sequence (P00760 24-246): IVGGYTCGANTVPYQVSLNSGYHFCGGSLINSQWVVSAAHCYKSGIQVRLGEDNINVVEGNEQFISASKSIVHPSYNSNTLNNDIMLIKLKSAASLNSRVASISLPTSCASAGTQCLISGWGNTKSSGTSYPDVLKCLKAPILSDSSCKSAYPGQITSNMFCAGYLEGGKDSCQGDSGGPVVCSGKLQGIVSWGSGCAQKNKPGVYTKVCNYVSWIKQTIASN

[4] = target: T2, plasmin (Homo sapiens, UniProt P00747); experiment: Inhibition of plasmin (Ki); format: biochemical; settings: Table 26
T2 construct: trypsin and the related enzymes thrombin, plasmin, factor Xa, tPA

[5] = target: T3, factor XIIa (Homo sapiens, UniProt P00748); experiment: Inhibition of factor XIIa (Ki); format: biochemical; settings: Table 26
T3 construct: glandular kallikrein, factor XIIa and plasma kallikrein
T3 sequence (P00748 373-615 limits assumed): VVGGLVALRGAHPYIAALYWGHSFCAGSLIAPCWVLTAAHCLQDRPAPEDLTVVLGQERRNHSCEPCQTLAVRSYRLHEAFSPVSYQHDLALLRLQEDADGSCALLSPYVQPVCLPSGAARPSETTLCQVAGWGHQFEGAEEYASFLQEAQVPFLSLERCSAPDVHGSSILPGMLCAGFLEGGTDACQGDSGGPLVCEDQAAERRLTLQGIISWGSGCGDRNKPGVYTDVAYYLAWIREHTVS

[6] = target: tPA (Homo sapiens, UniProt P00750); experiment: Inhibition of tPA (Ki); format: biochemical; settings: Table 26
[7] = target: glandular kallikrein (Sus scrofa, UniProt P00752); experiment: Inhibition of glandular kallikrein (Ki); format: biochemical; settings: Table 26; read-out: Ki, Gland. Kallikrein
[8] = target: T4, plasma kallikrein (Homo sapiens, UniProt P03952); experiment: Inhibition of plasma kallikrein (Ki); format: biochemical; settings: Table 26
T4 construct: glandular kallikrein, factor XIIa and plasma kallikrein

[9] = tested on: thrombin-induced plasma coagulation; experiment: Anticoagulant effect in vivo, thrombin-induced plasma coagulation of plasma of treated rats; design: species or system rat; settings: after i.v., s.c. and p.o. administration; FIG. 5
Protocol: After i.v., s.c. and p.o. administration of the compounds to be tested, the anticoagulant effect was determined in plasma of experimental animals (illustrated for compound 123 in FIG. 5).

[10] = in vivo; settings: mouse
[11] = Plasma concentration in rats after oral administration (HPLC); settings: rat, plasma, po, 100 mg/kg
[12] = Plasma concentration in rats after intravenous administration (HPLC)
Protocol: (§1) For the pharmacokinetic characterization, the plasma concentration of selected derivatives was determined in rats after intravenous (i.v.), subcutaneous (s.c.) and peroral (p.o.) application according to the following three-step procedure:
(§2) 1. A physiological NaCl solution of the substance to be tested was submitted to high pressure liquid chromatography (HPLC) in order to determine its characteristic substance-specific retention time with the chosen test conditions.
(§3) 2. The substance to be tested was diluted in vitro in rat plasma. This solution was also submitted to HPLC to see whether the characteristic peak of the substance once again appeared at the substance-specific retention time.
(§4) 3. […] Blood samples were taken at time intervals of 15 minutes, from which plasma samples were prepared by centrifugation; those samples were also submitted to HPLC to see whether the characteristic peak of the substance appeared again at the substance-specific retention time.

[13] = Plasma concentration in rats after subcutaneous administration (HPLC); settings: rat, plasma, sc, 5 mg/kg
Protocol: as §1, §2, §3, §4

Chain of tPA (P00750 36-562): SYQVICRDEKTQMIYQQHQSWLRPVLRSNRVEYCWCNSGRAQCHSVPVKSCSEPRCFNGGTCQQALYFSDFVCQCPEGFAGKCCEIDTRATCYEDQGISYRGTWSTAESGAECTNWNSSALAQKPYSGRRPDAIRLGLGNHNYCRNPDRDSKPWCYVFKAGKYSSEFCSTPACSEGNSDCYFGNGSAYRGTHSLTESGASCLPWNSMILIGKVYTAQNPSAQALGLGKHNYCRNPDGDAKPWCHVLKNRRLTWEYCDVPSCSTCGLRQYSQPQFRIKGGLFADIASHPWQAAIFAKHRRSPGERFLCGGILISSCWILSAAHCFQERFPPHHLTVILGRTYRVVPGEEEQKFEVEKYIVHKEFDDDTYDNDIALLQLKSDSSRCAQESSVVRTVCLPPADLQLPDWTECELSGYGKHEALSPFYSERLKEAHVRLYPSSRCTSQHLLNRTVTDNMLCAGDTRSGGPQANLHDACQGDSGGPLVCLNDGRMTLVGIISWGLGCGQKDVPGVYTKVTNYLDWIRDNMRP
T4 sequence (P03952 391-638 limits assumed, species assumed): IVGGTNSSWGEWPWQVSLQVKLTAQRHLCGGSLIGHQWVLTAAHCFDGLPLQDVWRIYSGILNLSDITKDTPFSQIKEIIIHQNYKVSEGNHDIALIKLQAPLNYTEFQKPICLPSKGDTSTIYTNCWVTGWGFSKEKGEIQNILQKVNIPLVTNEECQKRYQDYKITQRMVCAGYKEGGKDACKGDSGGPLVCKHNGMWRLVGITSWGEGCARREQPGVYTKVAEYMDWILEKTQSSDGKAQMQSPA
T4 sequence (P03952 20-390 partner limits assumed, species assumed): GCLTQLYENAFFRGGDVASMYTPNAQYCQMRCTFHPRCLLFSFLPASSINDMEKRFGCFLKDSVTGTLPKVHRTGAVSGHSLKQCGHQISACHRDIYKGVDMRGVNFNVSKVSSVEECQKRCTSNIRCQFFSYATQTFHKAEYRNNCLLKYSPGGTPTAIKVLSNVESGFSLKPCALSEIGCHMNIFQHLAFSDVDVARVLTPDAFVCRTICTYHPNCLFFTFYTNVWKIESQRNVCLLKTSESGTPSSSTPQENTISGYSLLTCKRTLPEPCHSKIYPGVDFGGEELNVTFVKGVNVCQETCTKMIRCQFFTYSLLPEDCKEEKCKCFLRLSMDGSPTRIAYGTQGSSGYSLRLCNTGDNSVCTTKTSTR
Chain of factor Xa (P00743 234-492 limits assumed): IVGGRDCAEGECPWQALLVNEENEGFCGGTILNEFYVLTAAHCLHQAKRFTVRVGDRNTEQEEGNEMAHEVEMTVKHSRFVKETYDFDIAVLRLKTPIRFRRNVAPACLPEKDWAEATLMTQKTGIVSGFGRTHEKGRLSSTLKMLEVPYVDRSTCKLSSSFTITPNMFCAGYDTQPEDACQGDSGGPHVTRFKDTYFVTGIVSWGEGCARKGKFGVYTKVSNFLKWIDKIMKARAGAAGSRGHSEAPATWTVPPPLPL
Chain of factor Xa (P00743 41-180 partner limits assumed): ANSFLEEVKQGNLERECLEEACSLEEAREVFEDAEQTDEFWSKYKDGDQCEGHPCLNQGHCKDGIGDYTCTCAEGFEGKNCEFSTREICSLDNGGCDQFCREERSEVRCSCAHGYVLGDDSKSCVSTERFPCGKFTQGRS
T2 sequence (P00747 581-810 limits assumed): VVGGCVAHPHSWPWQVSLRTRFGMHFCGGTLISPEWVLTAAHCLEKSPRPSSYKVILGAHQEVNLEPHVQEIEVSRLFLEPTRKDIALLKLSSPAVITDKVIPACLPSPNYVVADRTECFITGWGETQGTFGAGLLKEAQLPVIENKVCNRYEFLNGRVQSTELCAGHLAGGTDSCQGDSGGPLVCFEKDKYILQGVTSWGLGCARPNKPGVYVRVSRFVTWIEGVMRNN
T2 sequence (P00747 97-580 partner limits assumed): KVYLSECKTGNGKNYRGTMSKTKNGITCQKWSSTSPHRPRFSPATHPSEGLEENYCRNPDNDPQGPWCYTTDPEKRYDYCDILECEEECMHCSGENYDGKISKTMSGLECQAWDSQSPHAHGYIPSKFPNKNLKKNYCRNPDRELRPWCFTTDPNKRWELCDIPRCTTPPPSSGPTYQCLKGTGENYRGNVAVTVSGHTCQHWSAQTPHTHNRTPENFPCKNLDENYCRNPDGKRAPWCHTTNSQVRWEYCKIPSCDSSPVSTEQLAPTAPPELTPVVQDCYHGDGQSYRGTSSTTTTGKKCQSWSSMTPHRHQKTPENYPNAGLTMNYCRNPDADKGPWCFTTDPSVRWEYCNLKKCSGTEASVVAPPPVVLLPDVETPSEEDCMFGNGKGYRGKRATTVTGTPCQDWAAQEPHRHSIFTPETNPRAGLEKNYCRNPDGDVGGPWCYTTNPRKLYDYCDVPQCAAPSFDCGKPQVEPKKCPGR
Chain of glandular kallikrein (P00752 8-246): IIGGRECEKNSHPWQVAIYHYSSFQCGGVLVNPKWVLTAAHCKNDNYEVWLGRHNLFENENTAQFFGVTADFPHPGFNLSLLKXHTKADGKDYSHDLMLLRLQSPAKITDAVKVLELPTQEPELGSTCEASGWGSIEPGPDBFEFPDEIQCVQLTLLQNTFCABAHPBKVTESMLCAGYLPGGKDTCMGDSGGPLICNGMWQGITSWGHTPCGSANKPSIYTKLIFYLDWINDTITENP

## N=C(N)c1cccc(C[C@H](NS(=O)(=O)c2ccc3ccccc3c2)C(=O)N2CCC[C@@H]2C(=O)O)c1 [Compound 123, N-α-(2-Naphthylsulfonyl)-3-amidino-(L)-phenylalanyl-(D)-proline hydrochloride]
[1]
  Ki: 0.68 µM
[2]
  Ki: 220 µM
[3]
  Ki: 0.96 µM
[4]
  Ki: 95 µM
[5]
  Ki: > 1000 µM
[6]
  Ki: 300 µM
[7]
  Ki: > 1000 µM
[8]
  Ki: 59 µM
[9]
  anticoagulant / antithrombin effect in plasma of experimental animals: the antithrombin effect can be detected in the clotting test
[10]; iv
  LD50 at 168 h: 188 mg/kg
[10]; po
  LD50 at 168 h: > 3000 mg/kg
[11]
  concentration at 0.25 h: 230 ng/mL
  concentration at 0.5 h: 170 ng/mL
  concentration at 1 h: 100 ng/mL
  concentration at 1.5 h: 133 ng/mL
  concentration at 3 h: 96 ng/mL
  concentration at 4 h: 67 ng/mL
[12]; in words, compared with NAPAP
  pharmacokinetic properties: improved pharmacokinetic properties
[12]; rat, i.v. 1 mg/kg, 240 min
  Concentration in plasma: 0 ng/mL
[12]; rat, plasma, iv, 1 mg/kg
  concentration at 2 min: 2330 ng/mL
  concentration at 5 min: 1180 ng/mL
  concentration at 10 min: 660 ng/mL
  concentration at 0.25 h: 440 ng/mL
  concentration at 0.5 h: 260 ng/mL
  concentration at 0.75 h: 185 ng/mL
  concentration at 1 h: 160 ng/mL
  concentration at 1.5 h: 68 ng/mL
  concentration at 2 h: 32 ng/mL
  concentration at 3 h: 22 ng/mL
[13]
  concentration at 0.25 h: 792 ng/mL
  concentration at 0.5 h: 1340 ng/mL
  concentration at 0.75 h: 1380 ng/mL
  concentration at 1.5 h: 1780 ng/mL
  concentration at 2 h: 1600 ng/mL
  concentration at 3 h: 1140 ng/mL
  concentration at 4 h: 927 ng/mL
